The results in this text go back to the NIST ThermoML archive (doi:10.1016/j.jct.2016.11.017).

± gives the expanded uncertainty stated by the source.

Data set [1] can be described thus: Molar enthalpy of transition or fusion. Particulars: Crystal; DSC.
For data set [2] the following is noted: Crystal; DTA.

As for `C[C@@H]1CC[C@@]2(OC1)O[C@H]1C[C@H]3[C@@H]4CC=C5C[C@@H](O)CC[C@]5(C)[C@H]4CC[C@]3(C)[C@H]1[C@@H]2C` [Diosgenin], in data set [1], the “Molar enthalpy of transition or fusion” value stood at 12.5 ± 0.335 kcal/mol. Further, in data set [2], the Normal melting temperature was 201.2 ± 0.4 °C.

Regarding `C[C@]12CC[C@@H]3c4ccc(O)cc4CC[C@H]3[C@@H]1C[C@@H](O)[C@@H]2O` [Estriol], the “Molar enthalpy of transition or fusion” value in data set [1] worked out at 10.2 ± 0.287 kcal/mol. In addition, the Normal melting temperature in data set [2] worked out at 280.1 ± 0.4 °C.
